Laboratory results reported in patent US12077503B2, “Substituted cyclic amides and their use as herbicides” (FMC CORPORATION, priority 2015, dated 2024).
Where two headings read alike, the source gives them in different places.

Columns and labels:
Type in all cases: in vivo
[1] = tested on: pigweed (Amaranthus retroflexus); experiment: Test A preemergence; conditions: Amaranthus retroflexus, pre-emergence, 240 h; for pest or weed control at 125 g/ha: 125 g ai/ha; for pest or weed control at 500 g/ha: 500 g ai/ha
Kochia (Kochia scoparia) = experiment: Test A preemergence; conditions: Bassia scoparia, pre-emergence, 240 h; for pest or weed control at 125 g/ha: 125 g ai/ha; for pest or weed control at 500 g/ha: 500 g ai/ha
Method in brief: (§1)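 Treatment is preemergence as a directed soil spray after planting, or postemergence at the one- to two-leaf stage, with test chemical in a non-phytotoxic solvent mixture plus surfactant. Plants stay in the greenhouse about 10 d before visual injury scoring on a 0 to 100 scale versus untreated controls.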

[2] = tested on: ryegrass, Italian (Italian ryegrass, Lolium multiflorum); experiment: Test A preemergence; conditions: Lolium multiflorum, pre-emergence, 240 h; for pest or weed control at 125 g/ha: 125 g ai/ha; for pest or weed control at 500 g/ha: 500 g ai/ha
Method in brief: as §1

[3] = tested on: barnyardgrass (Echinochloa crus-galli); experiment: Test A preemergence; conditions: Echinochloa crus-galli, pre-emergence, 240 h; for pest or weed control at 125 g/ha: 125 g ai/ha; for pest or weed control at 500 g/ha: 500 g ai/ha
Method in brief: as §1

[4] = tested on: giant foxtail (Setaria faberii); experiment: Test A preemergence; conditions: Setaria faberi, pre-emergence, 240 h; for pest or weed control at 125 g/ha: 125 g ai/ha; for pest or weed control at 500 g/ha: 500 g ai/ha
Method in brief: as §1

[5] = tested on: ragweed (common ragweed, Ambrosia elatior); experiment: Test A preemergence; conditions: Ambrosia artemisiifolia, pre-emergence, 240 h; for pest or weed control at 125 g/ha: 125 g ai/ha; for pest or weed control at 500 g/ha: 500 g ai/ha
Method in brief: as §1

[6] = tested on: barnyardgrass (Echinochloa crus-galli); experiment: Test B flooded paddy test; conditions: Echinochloa crus-galli, Flood, 250 g ai/ha, read-out: Barnyardgrass plant response rating
Method in brief: (§2)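 Visual ratings (0 none to 100 complete control) are relative to untreated plants, taken 13–15 d after treatment in a greenhouse. Test material went straight into floodwater standing 3 cm above the soil, kept constant, on plants at the 2-leaf stage.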

[7] = tested on: ducksalad (Heteranthera limosa); experiment: Test B flooded paddy test; conditions: Heteranthera limosa, Flood, 250 g ai/ha, read-out: Ducksalad plant response rating
Method in brief: as §2

rice (Oryra sativa) = experiment: Test B flooded paddy test; conditions: Oryza sativa, Flood, 250 g ai/ha, read-out: Rice plant response rating
Method in brief: as §2

[8] = tested on: sedge, umbrella (small-flower umbrella sedge, Cyperus difformis); experiment: Test B flooded paddy test; conditions: Cyperus difformis, Flood, 250 g ai/ha, read-out: Sedge, Umbrella plant response rating
Method in brief: as §2

[9] = tested on: pigweed (Amaranthus retroflexus); experiment: Test A postemergence; conditions: Amaranthus retroflexus, post-emergence, 240 h, postemergence; for pest or weed control at 125 g/ha: 125 g ai/ha
Method in brief: as §1

[10] = tested on: ryegrass, Italian (Italian ryegrass, Lolium multiflorum); experiment: Test A postemergence; conditions: Lolium multiflorum, post-emergence, 240 h, postemergence; for pest or weed control at 125 g/ha: 125 g ai/ha
Method in brief: as §1

corn (Zea mays) = experiment: Test A postemergence; conditions: Zea mays, post-emergence, 240 h, postemergence; for plant injury at 125 g/ha: 125 g ai/ha
Method in brief: as §1

[11] = tested on: ragweed (common ragweed, Ambrosia elatior); experiment: Test A postemergence; conditions: Ambrosia artemisiifolia, post-emergence, 240 h, postemergence; for pest or weed control at 125 g/ha: 125 g ai/ha
Method in brief: as §1

[12] = tested on: blackgrass (Alopecurus myosuroides); experiment: Test A postemergence; conditions: Alopecurus myosuroides, post-emergence, 240 h, postemergence; for pest or weed control at 125 g/ha: 125 g ai/ha
Method in brief: as §1

[13] = preemergence, 0 to 100 scale where 0 is no effect and 100 is complete control, read-out: Pigweed plant response rating
[14] = preemergence, 0 to 100 scale where 0 is no effect and 100 is complete control, read-out: Kochia plant response rating
[15] = preemergence, 0 to 100 scale where 0 is no effect and 100 is complete control, read-out: Ryegrass, Italian plant response rating
[16] = preemergence, 0 to 100 scale where 0 is no effect and 100 is complete control, read-out: Barnyardgrass plant response rating
[17] = preemergence, 0 to 100 scale where 0 is no effect and 100 is complete control, read-out: Foxtail, Giant plant response rating
[18] = preemergence, 0 to 100 scale where 0 is no effect and 100 is complete control, read-out: Ragweed plant response rating
[19] = scale of 0 to 100 where 0 is no effect and 100 is complete control
[20] = 0 to 100 scale where 0 is no effect and 100 is complete control

**Q.** Which results are given for `CSc1ccccc1NC(=O)[C@H]1C(=O)N(C)C[C@@H]1c1cccc(OC(F)(F)C(F)F)c1` [Compound 862]?
**A.** pest or weed control at 125 g/ha [1, 13]: 80%; pest or weed control at 500 g/ha ([1]; Preemergence, visual injury vs untreated controls after approximately 10 d, read-out: Pigweed plant response rating (0 to 100 scale where 0 is no effect and 100 is complete control)): 90%; pest or weed control at 125 g/ha (Kochia (Kochia scoparia); [14]): 70%; pest or weed control at 500 g/ha (Kochia (Kochia scoparia); Preemergence, visual injury vs untreated controls after approximately 10 d, read-out: Kochia plant response rating (0 to 100 scale where 0 is no effect and 100 is complete control)): 70%; pest or weed control at 125 g/ha [2, 15]: 0%; pest or weed control at 500 g/ha ([2]; Preemergence, visual injury vs untreated controls after approximately 10 d, read-out: Ryegrass, Italian plant response rating (0 to 100 scale where 0 is no effect and 100 is complete control)): 20%; pest or weed control at 125 g/ha [3, 16]: 90%; pest or weed control at 500 g/ha ([3]; Preemergence, visual injury vs untreated controls after approximately 10 d, read-out: Barnyardgrass plant response rating (0 to 100 scale where 0 is no effect and 100 is complete control)): 100%; pest or weed control at 125 g/ha [4, 17]: 90%; pest or weed control at 500 g/ha ([4]; Preemergence, visual injury vs untreated controls after approximately 10 d, read-out: Foxtail, Giant plant response rating (0 to 100 scale where 0 is no effect and 100 is complete control)): 90%; pest or weed control at 125 g/ha [5, 18]: 90%; pest or weed control at 500 g/ha ([5]; Preemergence, visual injury vs untreated controls after approximately 10 d, read-out: Ragweed plant response rating (0 to 100 scale where 0 is no effect and 100 is complete control)): 100%; pest or weed control at 250 g/ha [6, 19]: 0%; pest or weed control at 250 g/ha [7, 19]: 90%; pest or weed control at 250 g/ha (rice (Oryra sativa); [19]): 0%; pest or weed control at 250 g/ha [8, 19]: 0%; pest or weed control at 125 g/ha ([9]; visual injury rating after approximately 10 d, read-out: Pigweed plant response rating (0 to 100 scale, 0 no effect, 100 complete control)): 60%; pest or weed control at 125 g/ha ([10]; visual injury rating after approximately 10 d, read-out: Ryegrass, Italian plant response rating (0 to 100 scale, 0 no effect, 100 complete control)): 20%; plant injury at 125 g/ha (corn (Zea mays); visual injury rating after approximately 10 d, read-out: Corn plant response rating (0 to 100 scale, 0 no effect, 100 complete control)): 20%; pest or weed control at 125 g/ha ([11]; visual injury rating after approximately 10 d, read-out: Ragweed plant response rating (0 to 100 scale, 0 no effect, 100 complete control)): 0%; pest or weed control at 125 g/ha ([12]; visual injury rating after approximately 10 d, read-out: Blackgrass plant response rating (0 to 100 scale, 0 no effect, 100 complete control)): 0%

**Q.** What does the source list for `Cc1cc([C@H]2CN(C)C(=O)[C@@H]2C(=O)Nc2ccccc2F)on1` [Compound 1195]?
**A.** pest or weed control at 125 g/ha ([1]; preemergence, visual injury rating, 0 to 100 scale where 0 is no effect and 100 is complete control, approximately 10 d, read-out: Pigweed plant response rating): 0%; pest or weed control at 500 g/ha [1, 13]: 0%; pest or weed control at 125 g/ha (Kochia (Kochia scoparia); preemergence, visual injury rating, 0 to 100 scale where 0 is no effect and 100 is complete control, approximately 10 d, read-out: Kochia plant response rating): 0%; pest or weed control at 500 g/ha (Kochia (Kochia scoparia); [14]): 0%; pest or weed control at 125 g/ha ([2]; preemergence, visual injury rating, 0 to 100 scale where 0 is no effect and 100 is complete control, approximately 10 d, read-out: Ryegrass, Italian plant response rating): 0%; pest or weed control at 500 g/ha [2, 15]: 0%; pest or weed control at 125 g/ha ([3]; preemergence, visual injury rating, 0 to 100 scale where 0 is no effect and 100 is complete control, approximately 10 d, read-out: Barnyardgrass plant response rating): 0%; pest or weed control at 500 g/ha [3, 16]: 80%; pest or weed control at 125 g/ha ([4]; preemergence, visual injury rating, 0 to 100 scale where 0 is no effect and 100 is complete control, approximately 10 d, read-out: Foxtail, Giant plant response rating): 0%; pest or weed control at 500 g/ha [4, 17]: 40%; pest or weed control at 125 g/ha ([5]; preemergence, visual injury rating, 0 to 100 scale where 0 is no effect and 100 is complete control, approximately 10 d, read-out: Ragweed plant response rating): 0%; pest or weed control at 500 g/ha [5, 18]: 0%; pest or weed control at 250 g/ha [6, 20]: 20%; pest or weed control at 250 g/ha [7, 20]: 0%; pest or weed control at 250 g/ha (rice (Oryra sativa); [20]): 20%; pest or weed control at 250 g/ha [8, 20]: 0%; pest or weed control at 125 g/ha ([9]; visual injury vs untreated controls after approx. 10 d, 0 = no effect, 100 = complete control, read-out: Pigweed plant response rating (0 to 100 scale)): 0%; pest or weed control at 500 g/ha ([9]; 500 g ai/ha, 0 to 100 scale, 0 is no effect, 100 is complete control, read-out: Pigweed plant response rating): 0%; pest or weed control at 125 g/ha ([10]; visual injury vs untreated controls after approx. 10 d, 0 = no effect, 100 = complete control, read-out: Ryegrass, Italian plant response rating (0 to 100 scale)): 0%; pest or weed control at 500 g/ha ([10]; 500 g ai/ha, 0 to 100 scale, 0 is no effect, 100 is complete control, read-out: Ryegrass, Italian plant response rating): 0%; plant injury at 125 g/ha (corn (Zea mays); visual injury vs untreated controls after approx. 10 d, 0 = no effect, 100 = complete control, read-out: Corn plant response rating (0 to 100 scale)): 0%; plant injury at 500 g/ha (corn (Zea mays); 500 g ai/ha, 0 to 100 scale, 0 is no effect, 100 is complete control, read-out: Corn plant response rating): 0%; pest or weed control at 125 g/ha ([11]; visual injury vs untreated controls after approx. 10 d, 0 = no effect, 100 = complete control, read-out: Ragweed plant response rating (0 to 100 scale)): 0%; pest or weed control at 500 g/ha ([11]; 500 g ai/ha, 0 to 100 scale, 0 is no effect, 100 is complete control, read-out: Ragweed plant response rating): 0%; pest or weed control at 125 g/ha ([12]; visual injury vs untreated controls after approx. 10 d, 0 = no effect, 100 = complete control, read-out: Blackgrass plant response rating (0 to 100 scale)): 0%; pest or weed control at 500 g/ha ([12]; 500 g ai/ha, 0 to 100 scale, 0 is no effect, 100 is complete control, read-out: Blackgrass plant response rating): 0%
